Laboratory results: PMC3583800, “Identification of active Plasmodium falciparum calpain to establish screening system for Pf-calpain-based drug development” (Malaria Journal, 2013)

Molecular target: T1, rPfcal-IIa (Pf-calpain catalytic subdomain IIa) (Plasmodium falciparum, UniProt E5LAD0)
T1 construct: also baculovirus/High Five for the mutation study; monomeric proposed
T1 sequence (E5LAD0 822-1216): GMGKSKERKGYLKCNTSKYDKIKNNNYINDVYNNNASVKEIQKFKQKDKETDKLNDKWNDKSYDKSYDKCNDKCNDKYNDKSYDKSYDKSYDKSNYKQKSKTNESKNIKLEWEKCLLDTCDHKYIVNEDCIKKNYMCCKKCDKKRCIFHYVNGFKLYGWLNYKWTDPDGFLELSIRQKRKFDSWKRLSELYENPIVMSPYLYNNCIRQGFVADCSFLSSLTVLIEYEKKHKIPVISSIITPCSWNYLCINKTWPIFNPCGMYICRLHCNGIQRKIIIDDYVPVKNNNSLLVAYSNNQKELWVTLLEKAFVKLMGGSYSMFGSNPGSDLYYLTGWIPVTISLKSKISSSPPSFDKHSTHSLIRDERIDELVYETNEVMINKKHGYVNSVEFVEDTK
Assay: fluorogenic Suc-LLVY-AMC assay and gelatin zymography
Type: biochemical
Conditions: 100 μM inhibitor pre-incubated 1 h at 37°C; 20 μM Suc-LLVY-AMC, 100 mM Tris-HCl pH 7.5, 1 mM DTT

With `CC(C)C[C@H](NC(=O)[C@@H]1O[C@H]1C(=O)O)C(=O)NCCCCNC(=N)N` [E-64] the “inhibition at 100 μM” value was “enzymatic activity of rPfcal-IIa protein was significantly inhibited by ALLN and E-64”.
